Like-named read-outs stand apart in the source and are kept apart here.
Biological target: recombinant human PAI-1 (Homo sapiens, UniProt P05121)
Assay: Test Example 2: Human PAI-1 Inhibitory Activity (pH 7.4 HEPES buffer, 10 minutes incubation with two-chain tPA)
Type: biochemical
Design: purchased Molecular Innovations, Inc
Details: for inhibition at 0.1 µM / inhibition at 0.3 µM / inhibition at 1 µM / inhibition at 3 µM / inhibition at 10 µM / inhibition at 25 µM: read-out: Inhibition Rate of PAI-1 Activity (%)
Protocol: 0.1 M HEPES, 0.1 M NaCl. 1 mM EDTA. 0.1 % Polyethylene glycol 8,000 (Hampton Research Corporation),
2 mM Dimethyldecylphoshine oxide [Apo-10] (Fluka Corporation)

Sequence of recombinant human PAI-1 (P05121 24-402): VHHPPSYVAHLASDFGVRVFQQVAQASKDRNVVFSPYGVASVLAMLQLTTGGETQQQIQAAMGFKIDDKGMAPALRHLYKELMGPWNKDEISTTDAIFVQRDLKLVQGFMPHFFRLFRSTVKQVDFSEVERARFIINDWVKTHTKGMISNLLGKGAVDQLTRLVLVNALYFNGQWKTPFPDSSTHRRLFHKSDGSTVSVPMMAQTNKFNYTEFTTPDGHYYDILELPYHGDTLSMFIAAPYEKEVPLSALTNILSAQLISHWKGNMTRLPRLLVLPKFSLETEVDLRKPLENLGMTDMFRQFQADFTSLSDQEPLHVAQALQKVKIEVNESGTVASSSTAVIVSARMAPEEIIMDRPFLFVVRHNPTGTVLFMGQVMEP

Row | Structure (SMILES) | inhibition at 0.1 µM | inhibition at 0.3 µM | inhibition at 1 µM | inhibition at 3 µM | inhibition at 10 µM | inhibition at 25 µM | IC50 (human PAI-1, calculated from the inhibition rates) | IC50 (concentration that inhibits 50 % of the human PAI-1 activity, calculated from the inhibition rates of Test Example 2, read-out: IC50)
1 | CCCCCCOc1ccc(-c2ccc(OC(F)(F)F)cc2)cc1OC(CCCCCC)C(=O)O (centres unmarked) [Compound 429] | 7% | 9% | 93% | 95% |  |  |  | 
2 | CC(C)(C)c1ccc(COc2ccc(NS(=O)(=O)c3ccc(OC(F)(F)F)cc3)cc2CCC(=O)O)cc1 [Compound 415] |  |  | 41% | 98% | > 99% | > 99% |  | 
3 | CCCCCOc1ccc(-c2ccccc2)cc1N(CCCCc1ccccc1)C(=O)C(=O)O [Compound 360] | 5% | 8% | 35% | 92% |  |  |  | 
4 | CCCCCCCc1ccc(-c2ccc(OC(F)(F)F)cc2)cc1N(CCCCc1ccccc1)C(=O)C(=O)O [Compound 371] | 10% | 17% | 93% | 91% |  |  |  | 690 nM
5 | CCCCCOc1cc(-c2ccc(OC(F)(F)F)cc2)ccc1N(CCCCc1ccccc1)C(=O)C(=O)O [Compound 367] | 10% | 26% | 52% | 94% |  |  |  | 
6 | CCCCCOc1ccc(-c2cccc(C(F)(F)F)c2)cc1N(CCCCc1ccccc1)C(=O)C(=O)O [Compound 378] | 20% | 7% | 80% | 91% |  |  |  | 
7 | CCCCCOc1cc(-c2cccc(OC(F)(F)F)c2)ccc1N(CCCCc1ccccc1)C(=O)C(=O)O [Compound 393] | 8% | 19% | 75% | 97% |  |  |  | 
8 | CCCCCCCCCOc1cc(N(Cc2ccc(C(C)(C)C)cc2)C(=O)C(=O)O)ccc1-c1ccc(OC(F)(F)F)cc1 [Compound 388] | 75% | > 99% | > 99% | > 99% |  |  |  | 
9 | Cc1cc(C)cc(-c2ccc(CCC(=O)O)c(Oc3ccc(C(C)(C)C)cc3)c2)c1 [Compound 498] | 1% | 4% | 44% | > 99% |  |  |  | 
10 | CCCCCOc1cc(-c2cccc(C)c2)ccc1N(CCCCc1ccccc1)C(=O)C(=O)O [Compound 376] | 6% | 15% | 62% | 95% |  |  |  | 
11 | O=C(O)CCc1ccc(-c2ccc(OC(F)(F)F)cc2)cc1OC(c1ccccc1)c1ccccc1 [Compound 507] | 6% | 8% | 49% | > 99% |  |  |  | 
12 | CC(C)(C)c1ccc(Oc2cc(-c3ccc(OC(F)(F)F)cc3)ccc2C(=O)O)cc1 [Compound 434] | 14% | 8% | 66% | > 99% |  |  |  | 
13 | O=C(O)/C=C/c1ccc(-c2ccc(OC(F)(F)F)cc2)cc1OC(c1ccccc1)c1ccccc1 [Compound 506] | 2% | 9% | 78% | > 99% |  |  |  | 
14 | CCCCCOc1ccc(-c2cc(C)cc(C)c2)cc1N(CCCCc1ccccc1)C(=O)C(=O)O [Compound 672] | 3% | 15% | 92% | > 99% |  |  |  | 
15 | CCCCC(Oc1cc(-c2cccc(C)c2)ccc1Oc1ccc(C(C)(C)C)cc1)C(=O)O (centres unmarked) [Compound 317] | 14% | 16% | 79% | 94% |  |  |  | 
16 | CCCCCCCCCCN(C(=O)C(=O)O)c1ccc(-c2ccc(OC(F)(F)F)cc2)cc1 [Compound 669] | 28% | 34% | > 99% | > 99% |  |  |  | 
17 | CC(C)(C)Oc1ccc(-c2ccc(OC(F)(F)F)cc2)cc1N(CCCCc1ccccc1)C(=O)C(=O)O [Compound 373] | 0% | 0% | 28% | 90% |  |  |  | 
18 | CCCCC(C(=O)O)N(Cc1ccc(C(C)(C)C)cc1)c1ccc(-c2ccc(OC(F)(F)F)cc2)cc1 (centres unmarked) [Compound 642] | 16% | 57% | 94% | 93% |  |  |  | 
19 | O=C(O)CCCCCCCCOc1ccc(-c2ccc(OC(F)(F)F)cc2)cc1N(CCCCc1ccccc1)C(=O)C(=O)O [Compound 646] | 4% | 15% | 38% | 86% |  |  |  | 
20 | CCCCC(Oc1ccc(-c2ccc(OC(F)(F)F)cc2)cc1OCCCCc1ccccc1)C(=O)O (centres unmarked) [Compound 311] | 0% | 11% | 77% | 97% |  |  |  | 

Second part, led by results:

Row | inhibition at 0.1 µM | inhibition at 0.3 µM | inhibition at 1 µM | inhibition at 3 µM | inhibition at 10 µM | inhibition at 25 µM | IC50 (human PAI-1, calculated from the inhibition rates) | Structure (SMILES) | IC50 (concentration that inhibits 50 % of the human PAI-1 activity, calculated from the inhibition rates of Test Example 2, read-out: IC50)
21 | 11% | 33% | 90% | > 99% |  |  |  | CC(C)(C)c1ccc(-c2ccc(/C=C/C(=O)O)c(Oc3ccc(OC(F)(F)F)cc3)c2)cc1 [Compound 478] | 
22 | 6% | 9% | 54% | 88% |  |  |  | CCCCC(Oc1ccc(-c2ccc(OC(F)(F)F)cc2)cc1Oc1ccc(C(C)(C)C)cc1)C(=O)O (centres unmarked) [Compound 305] | 
23 | 1% | 27% | 62% | 97% |  |  |  | CC(C)(C)c1ccc(Oc2cc(OCC(=O)O)cc(-c3ccc(OC(F)(F)F)cc3)c2)cc1 [Compound 427] | 
24 | 4% | 11% | 39% | > 99% |  |  |  | CSc1ccc(-c2ccc(OCC(=O)O)c(Oc3ccc(C(C)(C)C)cc3)c2)cc1 [Compound 448] | 
25 | 15% | 9% | 26% | > 99% |  |  |  | CC(C)(C)Oc1ccc(Oc2cc(-c3ccc(OC(F)(F)F)cc3)ccc2CCC(=O)O)cc1 [Compound 473] | 
26 | 0% | 4% | 92% | > 99% |  |  |  | CC(C)(C)c1ccc(CCc2cc(-c3ccc(OC(F)(F)F)cc3)ccc2OCC(=O)O)cc1 [Compound 551] | 
27 | 18% | 29% | 94% | > 99% |  |  |  | CC(C)(C)c1ccc(Sc2cc(-c3ccc(OC(F)(F)F)cc3)ccc2/C=C\C(=O)O)cc1 [Compound 529] | 
28 | 0% | 8% | 84% | > 99% |  |  |  | CC(C)c1ccc(Oc2cc(-c3ccc(OC(F)(F)F)cc3)ccc2CCC(=O)O)cc1 [Compound 510] | 
29 | 2% | 11% | 43% | > 99% |  |  |  | O=C(O)CCc1ccc(-c2ccc(OC(F)(F)F)cc2)cc1Oc1ccc(C(F)(F)F)cc1 [Compound 474] | 
30 | 4% | 23% | 86% | 89% |  |  |  | CCCCCOc1cc(-c2ccc(OC(F)(F)F)cc2)ccc1CN(C(=O)C(=O)O)c1ccc(C(C)(C)C)cc1 [Compound 648] | 
31 | 1% | 8% | 63% | > 99% |  |  |  | CC(C)Oc1ccc(-c2ccc(OCC(=O)O)c(Oc3ccc(C(C)(C)C)cc3)c2)cc1 [Compound 460] | 
32 | 12% | 29% | 81% | 98% |  |  |  | CCCN(CC(=O)O)c1cc(-c2ccc(OC(F)(F)F)cc2)ccc1Oc1ccc(C(C)(C)C)cc1 [Compound 435] | 
33 | 25% | 83% | 97% | 97% |  |  |  | CCCCN(CC(=O)O)c1ccc(-c2ccc(OC(F)(F)F)cc2)cc1Oc1ccc(C(C)(C)C)cc1 [Compound 533] | 
34 | 2% | 21% | 72% | 81% |  |  |  | CC(C)(C)c1ccc(Oc2ccc(-c3ccc(OC(F)(F)F)cc3)cc2N(CCCCc2ccccc2)C(=O)C(=O)O)cc1 [Compound 636] | 
35 | 3% | 19% | 63% | > 99% |  |  |  | CC(C)(C)c1cccc(Oc2cc(-c3ccc(OC(F)(F)F)cc3)ccc2OCC(=O)O)c1 [Compound 436] | 
36 | 12% | 24% | 72% | > 99% |  |  |  | CCCCC(CC(=O)O)c1cc(-c2ccc(OC(F)(F)F)cc2)ccc1Oc1ccc(C(C)(C)C)cc1 (centres unmarked) [Compound 422] | 
37 | 7% | 13% | 70% | 98% |  |  |  | CC(C)(C)c1ccc(Oc2cc(-c3ccccc3OC(F)(F)F)ccc2OCC(=O)O)cc1 [Compound 456] | 
38 | 10% | 64% | 96% | 97% |  |  |  | CCCCCOc1cc(-c2ccc(OC(F)(F)F)cc2)ccc1CN(CC(=O)O)c1ccc(C(C)(C)C)cc1 [Compound 649] | 
39 | 0% | 14% | 30% | > 99% |  |  | 1460 nM | CC(C)(C)c1ccc(Oc2ccc(-c3ccc(C(F)(F)F)cc3)cc2OCC(=O)O)cc1 [Compound 328] | 
40 | 6% | 10% | 66% | > 99% |  |  |  | CC(C)c1ccccc1Oc1cc(-c2ccc(OC(F)(F)F)cc2)ccc1CCC(=O)O [Compound 491] | 
41 |  |  | 43% | 98% | > 99% | 95% |  | CC(C)(C)c1ccc(-c2ccc(CN(C(=O)C(=O)O)c3ccc(OC(F)(F)F)cc3)cc2)cc1 [Compound 615] | 
42 | 11% | 17% | > 99% | > 99% |  |  |  | CCCCCOc1ccc(-c2ccc(Oc3ccc(C(C)(C)C)cc3)c(OCC(=O)O)c2)cc1 [Compound 454] | 

From EP2272817A1, “PAI-1 INHIBITOR” (Institute of Medicinal Molecular Design, Inc., priority 2008, dated 2009)
